US20130331389A1, “Methods and Compositions for Cardiomyocyte Replenishment by Endogenous and Progenitor Stem Cells” (NATIONAL CHENG KUNG UNIVERSITY, priority 2012, published 2013)

How the values were obtained:
B220 = assay: Quantitative RT-PCR of B cell marker B220 in infarct region; format: in vivo, mouse; conditions: both young and old mice; day 3 post-infarction
Description: (§1) To induce Cre recombination to achieve GFP labeling of cardiomyocytes, tamoxifen (Sigma) was dissolved in sunflower oil (Sigma) at a concentration of 5 mg/ml. The tamoxifen solution was injected intraperitoneally into M/Z mice daily at a dosage of 40 μg per 1 g body weight for 14 days, and the same dosage was injected twice daily for short-term labeling using methods known in the art (Laugwitz, K.-L. et al. Nature 433, 647-653 (2005)). All experimental conditions were optimized prior to the PGE2, indomethacin and TGF-β Type I Receptor Kinase Inhibitor II (ALK5 Inhibitor II, ALK5i, Merck) treatments. The mice treated with PGE2 or PGI2 (Vegiopoulos, A. et al. Science 328, 1158-1161 (2010)) (both from Sigma) were injected intraperitoneally with 3.33 ng of drug per 1 g of body weight dissolved in absolute ethanol twice daily. […]
(§2) The total RNA isolated from the ischemic region or remote area of MI hearts was reverse transcribed using the SuperScript III (Invitrogen) system according to the manufacturer's protocol. For quantitative PCR, the SYBR Green reagent (Maestrogen) was used according to the manufacturer's protocol. The analysis of relative gene expression was performed using the 2̂[−delta delta Ct] method and sequence-specific primers designed for semi-quantitative PCR and real-time RT-PCR (FIG. 11).

[1] = tested on: MMP2, MMP9, TNF-α, IL-1β and IL-6; assay: Quantitative RT-PCR of inflammatory cytokines in infarct region; format: in vivo, mouse; conditions: young mice
Description: as §1, §2

[2] = tested on: cardiomyocyte-depleted small cells; assay: Culture of cardiomyocyte-depleted small cells, cTnT immunocytochemistry; format: cell-based, mouse; conditions: PGE2 10 μm for three days
Description: Cardiomyocyte-depleted cardiac small cells were prepared as previously described with some modifications (Oh, H. et al. Proc. Natl. Acad. Sci. USA 100, 12313-12318 (2003); and Pfister, O. et al. Circ. Res. 97, 52-61 (2005)). Specifically, instead of using a 70 μm and then a 45 μm strainer to isolate the cardiomyocyte-depleted cardiac small cells, the cells were filtered through a 45 μm strainer directly after enzyme digestion. The minced heart tissue was digested with 0.1% collagenase B (Roche Molecular Biochemicals), 2.4 U/ml dispase II (Roche Molecular Biochemicals) and 2.5 mmol/L CaCl2 at 37° C. for 30 minutes and then filtered through a 45-μm filter. For isolation of cardiac Sca-1^+ cells, the cardiac small cells were incubated with the Phycoerythrin (PE)-conjugated Sca-1^+ antibodies (BD Bioscience) at 4° C. for 30 minutes. The PE-labeled Sca-1^+ cells were then sorted by the magnetic particles against PE (BD Biosciences). Incubation of cardiomyocyte-depleted small cells with anti-Sca-1-PE antibody and magnetic cell sorting were omitted for isolation of Sca-1^+ cells from the Sca-1-GFP transgenic mice. After isolation, the cells were fixed in 2% paraformaldehyde for 20 minutes and followed by 1 hour blocking in PBS with 1% BSA. […]

[3] = tested on: M1 (CD11b+/CD11c+) and M2 (CD11b+/CD206+) macrophages; assay: Immunostaining of M1 and M2 macrophages in heart sections day 3 post-infarction; format: in vivo, mouse; conditions: young mice
Description: as §1, with “daily. For the indomethacin treatment, mice were fed with water containing indomethacin (Sigma, 15 μg/ml) for different periods of time.” for “daily.”
The harvested hearts were fixed with 4% paraformaldehyde and embedded in paraffin. […] A DAB substrate kit (Vector Laboratories) was used for immunohistochemistry and appropriate secondary antibodies (Invitrogen or Abcam) were used for visualization under a fluorescence microscope. […] The appropriate secondary antibodies (Invitrogen or Jackson ImmunoResearch) were used for visualization under a fluorescence microscope. […]

TGF-β1 = assay: Quantitative RT-PCR of TGF-β1 in infarcted region of MI heart; format: in vivo, mouse; conditions: day 3 and day 7 after injury
Description: as §1, §2

## CCCCC[C@H](O)/C=C/C1C(O)CC(=O)C1C/C=C\CCCC(=O)O (stereo partly drawn) [PGE2, (5Z,11α,13E,15S)-7-[3-hydroxy-2-(3-hydroxyoct-1-enyl)-5-oxo-cyclopentyl]hept-5-enoic acid]
B220
  B220 level: reduced
[1]
  expression of inflammatory cytokines acting downstream of PGE2: further enhanced
[2]
  mature sarcomeric structure, as determined by the expression of cTnT: seen
[3]
  number of M1 macrophage: reduced
  number of M2 macrophage: increased
TGF-β1; aged mice
  expression of TGF-β1: decline
TGF-β1; young mice
  expression of TGF-β1: not significantly altered
